From patent US20230278972A1, “SUBSTITUTED HALOALKYL SULFONANILIDE HERBICIDES” (FMC Corporation, priority 2020, published 2023)

Columns and labels:
Assay type in all cases: in vivo
[1] = test system: Foxtail, Giant (giant foxtail, Setaria faberi); assay: Test A1 preemergence, Foxtail, Giant
Outline: (§1)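 Plants grown in pots of loam/sand mix; preemergence = soil-directed spray on seeded pots, postemergence = spray at 1–2 leaves, height 2–10 cm; test chemicals formulated in non-phytotoxic solvent with surfactant.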

kochia (Bassia scoparia) = assay: Test A1 preemergence, kochia
Outline: as §1

[2] = test system: Ryegrass, Italian (Italian ryegrass, Lolium multiflorum); assay: Test A1 preemergence, Ryegrass, Italian
Outline: as §1

[3] = test system: wheat (Triticum aestivum); assay: Test A1 preemergence, wheat
Outline: as §1

corn (Zea mays) = assay: Test A1 postemergence, corn; settings: Postemergence
Outline: as §1

[4] = test system: Foxtail, Giant (giant foxtail, Setaria faberi); assay: Test A1 postemergence, Foxtail, Giant; settings: Postemergence
Outline: (§2)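 Both timings started from seed in a loam-sand blend. Preemergence pots got a directed soil application immediately; postemergence pots were sprayed when seedlings had one or two leaves and stood 2–10 cm. Each compound was prepared in a non-phytotoxic solvent plus surfactant.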

soybean (Glycine max) = assay: Test A1 postemergence, soybean; settings: Postemergence
Outline: as §2

[5] = test system: horseweed (Erigeron canadensis); assay: Test A1 postemergence, horseweed; settings: Postemergence
Outline: as §2

rice (Oryza sativa) = assay: Test B1 flooded paddy test, rice; settings: 250 g ai/ha, Flood, applied to paddy water, 2-leaf stage, visually evaluated after 10 to 14 days
Text: A dash (-) response means no test result.

[6] = 31 g ai/ha, 0 to 100 scale (0 no effect, 100 complete control)
[7] = 125 g ai/ha, 0 to 100 scale, 0 no effect, 100 complete control
[8] = 31 g ai/ha, 0 to 100 scale (0 no effect, 100 complete control), 10 days

Row | Compound | Plant response rating, Foxtail, Giant [1, 6] | Plant response rating, Foxtail, Giant [1, 7] | Plant response rating, Kochia (kochia (Bassia scoparia); [6]) | Plant response rating, Kochia (kochia (Bassia scoparia); [7]) | Plant response rating, Ryegrass, Italian [2, 6] | Plant response rating, Ryegrass, Italian [2, 7] | Plant response rating, Wheat [3, 6] | Plant response rating, Wheat [3, 7] | Plant response rating, Corn (corn (Zea mays); [8]) | Plant response rating, Corn (corn (Zea mays); 125 g ai/ha, 0 to 100 scale) | Plant response rating, Foxtail, Giant [4, 8] | Plant response rating, Foxtail, Giant ([4]; 125 g ai/ha, 0 to 100 scale) | Plant response rating, Soybean (soybean (Glycine max); [8]) | Plant response rating, Soybean (soybean (Glycine max); 125 g ai/ha, 0 to 100 scale) | Plant response rating, Horseweed [5, 8] | Plant response rating, Horseweed ([5]; 125 g ai/ha, 0 to 100 scale) | Plant response rating, Rice (0 to 100 scale, 0 is no effect, 100 is complete control) (rice (Oryza sativa))
1 | Cc1cc(C)c(N(COC(=O)C(C)(C)C)S(=O)(=O)C(F)(F)F)cc1C1=NOC2COCC12 (centres unmarked) [Compound 301] | 10 | 90 | 30 | 80 | 20 | 90 | 0 | 40 | 0 | 30 | 0 | 60 | 10 | 40 | 50 | 80 | 0
2 | Cc1cc(Br)c(C2=NOC3CCCC23)cc1NS(=O)(=O)C(F)(F)F (centres unmarked) [Compound 302] | 20 | 80 | 30 | 80 | 50 | 90 | 0 | 20 | 0 | 0 | 0 | 0 | 20 | 40 | 10 | 40 | 0
3 | COc1cc(C)c(C2=NOC3(CCCC3)C2)cc1NS(=O)(=O)C(F)(F)F [Compound 304] | 0 | 80 | 0 | 0 | 40 | 50 | 0 | 20 | 0 | 20 | 0 | 50 | 20 | 50 | 0 | 0 | 0
4 | Cc1cc(C(F)(F)F)c(C2=NOC3CCCC23)cc1NS(=O)(=O)C(F)(F)F (centres unmarked) [Compound 306] | 0 | 20 | 0 | 30 | 0 | 80 | 0 | 0 | 0 | 0 | 0 | 30 | 20 | 40 | 0 | 40 | 0
5 | Cc1cc(C)c(N(COC(=O)C(C)C)S(=O)(=O)C(F)(F)F)cc1C1=NOC2CCCC12 (centres unmarked) [Compound 308] | 50 | 80 | 20 | 70 | 60 | 90 | 20 | 80 | 0 | 30 | 0 | 40 | 40 | 60 | 0 | 60 | 10
6 | Cc1cc(F)c(C2=NOC3CCCC23)cc1NS(=O)(=O)C(F)(F)F (centres unmarked) [Compound 310] | 0 | 20 | 0 | 40 | 40 | 50 | 0 | 0 | 0 | 0 | 0 | 0 | 20 | 30 | 10 | 30 | 0
7 | COc1cc(C)c(NS(=O)(=O)C(F)(F)F)cc1C1=NOC2CCCC12 (centres unmarked) [Compound 312] | 20 | 30 | 0 | 0 | 0 | 40 | 0 | 0 | 0 | 0 | 0 | 10 | 20 | 20 | 0 | 20 | 0
8 | Cc1cc(C2CC2)c(NS(=O)(=O)C(F)(F)F)cc1C1=NOC2(CCCC2)C1 [Compound 313] | 0 | 40 | 0 | 0 | 30 | 50 | 0 | 0 | 0 | 0 | 0 | 0 | 0 | 20 | 0 | 0 | 0
9 | Cc1cc(C)c(N(COC(=O)OC(C)C)S(=O)(=O)C(F)(F)F)cc1C1=NOC2CCCC12 (centres unmarked) [Compound 314] | 30 | 90 | 0 | 70 | 40 | 90 | 0 | 50 | 0 | 30 | 10 | 30 | 40 | 50 | 0 | 50 | 25
10 | COC(=O)OCN(c1cc(C2=NOC3CCCC23)c(C)cc1C)S(=O)(=O)C(F)(F)F (centres unmarked) [Compound 315] | 70 | 90 | 0 | 60 | 70 | 100 | 20 | 70 | 20 | 20 | 0 | 20 | 40 | 60 | 20 | 60 | 35
